Cytotoxicity data for 38 compounds are collected here from ChEMBL document CHEMBL3507680, “University of Dundee, Gates Library screen for HepG2 cell viability”.

The nature of the data set: Human HepG2 cell viability assay in 384 well format. It is filed as toxicity, cell-based. Also on record: dose 125 nL, time 70.5 hour; concentration not given beside the values. To be noted: HepG2 cells, read-out: Inhibition.
As for `CCOC(=O)C1CCCCN1Cc1c[nH]nc1-c1ccc(F)cc1F` (stereo not drawn), the cytotoxicity at 70.5 h was -7.54%.

Take `Cc1nc(C2CCCNC2)cc(N(C)CCc2ccccc2)n1` (stereo not drawn): the cytotoxicity at 70.5 h turned out to be 20.6%. In the case of `CC(C)(C)c1cn(C2CCN(C(=O)c3cnccn3)CC2)nn1`, the cytotoxicity at 70.5 h was -13.1%.

For `CN(CCCc1cnn(C)c1)Cc1cc2n(n1)CCCN(C)C2`, the cytotoxicity at 70.5 h was -7.1%. `COc1cc2ncn(Cc3ncc[nH]3)c(=O)c2cc1OC`: the cytotoxicity at 70.5 h is -23.4%.

`O=C(O)c1ccnc(-c2ccnc(COc3ccc(Cl)cc3)n2)c1`: the cytotoxicity at 70.5 h was -9.69%. The result for `Cc1ccccc1Oc1ncccc1CNC(=O)Cn1cccnc1=O` reads 3.17%; that for `COc1cccc(OCC2CCCN(C(=O)CCn3ccnc3)C2)c1` (stereo not drawn), 11.7%; that for `CCc1nc(N2CCCC(CO)(CCOC)C2)ncc1C` (stereo not drawn), -7.73%. The figure for `Cc1ncsc1CCC(=O)N(C)Cc1nc2ccccc2n1C` is -1.06%; for `O=C(c1ccc(Cn2cnnn2)cc1)N1CCC(c2ccncc2)CC1` it is -3.04%. The figure for `CC(C)N1CC(C(=O)N2CCc3c(nc(CC4CC4)[nH]c3=O)C2)CC1=O` (stereo not drawn) is -2.23%; for `CCCN1CCC(CC(=O)N(C)C(C)c2cncs2)CC1` (stereo not drawn) it is -16.1%. For `CCOC(=O)c1ccc(N2CCN(Cc3c(C)nn(C)c3Cl)CC2)nc1`, the cytotoxicity at 70.5 h worked out at 12.7%. As to `CO[C@H]1C[C@@H](O)C12CCN(Cc1nc(C(F)(F)F)no1)CC2`, the cytotoxicity at 70.5 h was -10.9%. `Cc1noc(C)c1CCCNc1cnccn1`: the cytotoxicity at 70.5 h is -16.9%. `CC(C)CN1CC2(CCN(C(=O)C(O)c3ccccc3Cl)CC2)CC1=O` (stereo not drawn): the cytotoxicity at 70.5 h is -5.68%. The figure for `CCc1ccccc1-c1cc(C)nc(N)n1` is -7.75%; for `COCc1cc(CNCc2c(C)n(CC(N)=O)c3ccccc23)n[nH]1` it is -9.7%; for `Cc1cc(N2CCN(C(=O)Cc3c(C)nc(C)[nH]c3=O)CC2)cc(C)n1` it is 18.5%. For the compound `CCc1ccc(CN2CCC(c3ccccc3C(=O)O)C2)nc1` (stereo not drawn), the cytotoxicity at 70.5 h is -13.9%.

Turning to `COc1ccccc1Oc1ncccc1CNC(=O)C(C)CN` (stereo not drawn), the cytotoxicity at 70.5 h was -9.25%. For `CCc1nc(C)c([C@H]2CN(C)C[C@@H]2C(=O)Nc2cccc3cn[nH]c23)[nH]1`, the cytotoxicity at 70.5 h was -5.72%. Turning to `CCCn1cc(-c2cc(-c3cc(CC)n[nH]3)c(C#N)c(N)n2)c(C)n1`, the cytotoxicity at 70.5 h is -3.18%. The result for `O=C(CN1CCCCCC1)NCc1ccc2[nH]c(=O)[nH]c2c1` reads -8.16%; that for `COc1cc(C(=O)N2C[C@H]3CC[C@@H]2CN(Cc2cscn2)C3)ccn1`, -22.3%. In the case of `O=C(CCc1cn[nH]c1)N1C[C@@H](CN2CCOCC2)C[C@H](CO)C1`, the cytotoxicity at 70.5 h turned out to be 8.69%.

Take `Cc1nc(C(C)C)sc1C(=O)N1CCC(N2CCSCC2)CC1`: the cytotoxicity at 70.5 h is -12.7%. The result for `CCN(Cc1cn(C)nc1-c1ccc2c(c1)OCCO2)CC1CCCO1` (stereo not drawn) reads -6.76%; that for `CCc1noc(CN2C[C@H]3CC[C@@H]2CN(C2Cc4ccccc4C2)C3)n1`, 4.55%; that for `CCc1cc(N2CCN(c3ccc(Cl)cn3)CC2)n2nccc2n1`, -1.55%.

With `Cn1cc(C(=O)N2CCC(c3nccn3Cc3ccncc3)CC2)cn1`, the cytotoxicity at 70.5 h was -7.19%. The result for `COc1ccc2cc(CN(C)CCN3CCCCC3=O)c(=O)[nH]c2c1` reads -12.2%; that for `CC(C)c1nc(CN(C)Cc2ccc(O)c(C(=O)O)c2)cs1`, -4.7%; that for `O=C(CCc1cc2n(n1)CCN(CCCn1cccc1)C2)N1CCCC1`, -10.4%. The figure for `O=C(Cc1ccc(CO)cc1)N1CCN(c2ccccc2Cl)C(=O)C1` is -9.48%; for `CS(=O)(=O)c1cnc(C2CCCC2)nc1C1CCCNC1` (stereo not drawn) it is 1.49%; for `CCCOCC(=O)N1CCCC(c2nnc(CN3CCCCC3)n2C)C1` (stereo not drawn) it is 9.63%.
